This is an account of results in patent publication US7442802B2, “Cyclooxygenase-2 selective inhibitors, compositions and methods of use” (NitroMed, Inc., priority 2002, dated 2008).

Each structure is given as a SMILES string. Like-named read-outs stand apart in the source and are kept apart here.

One data set concerns the target T1, COX-1 (Homo sapiens, UniProt P23219).
T1 construct: endogenous in cells; host or cells: heparinised human whole blood from donors, stimulated with the calcium ionophore A23187
Description: Human COX-1 enzyme activity in human whole blood (A23187-stimulated, thromboxane B2 EIA). The note with it: for inhibition at 100 µM: read-out: COX-1 Inhibition (% at 100 μM). In kind it is cell-based. As for the experimental part: (§1) The blood was transported to the laboratory on ice packs and used within 1.5 hours of collection. Upon receipt in the laboratory, the blood was allowed to come to room temperature for 15 minutes prior to distribution in 1 mL aliquots per well of 24 well tissue culture plates. […] Test compounds were dissolved in DMSO, at 1000 fold the final desired concentration, and further diluted, as indicated, in DMSO. One μL of each dilution of the test compound was added per well, in duplicate wells; wells not receiving test compound (e.g., basal, background or control wells) received 1 μL DMSO. […] Louis, Mo., Catalogue No. […] Louis, Mo., Catalogue No. […] (Again, basal, background or control wells not stimulated with A23187 received 1 μL of DMSO.) At 5 hours after the addition of the test compound, all incubations were terminated by placement on ice and the addition of 2 mM EGTA (100 μL of 20 mM EGTA, tetrasodium, in PBS (phosphate buffered saline) without Ca^++ and Mg^++, pH 7.2)). […] One hundred μL of plasma was removed from each blood sample and added to 1 mL of methanol in new 15 mL polypropylene centrifuge tubes, vortexed, and stored overnight at -20° C. […] The samples were assayed for thromboxane B2 using EIA kits supplied by Cayman Chemical Co. […] The % inhibition for COX-1 and COX-2 enzyme activity in human whole blood by the test compounds, at the indicated concentrations, are given in Table 1.

A further data set addresses T2, COX-2 (Homo sapiens, UniProt P35354).
T2 construct: To induce COX-2, lipopolysaccharide (LPS) from E. coli; endogenous in cells; host or cells: heparinised human whole blood from donors, with COX-2 induced by E. coli LPS
T2 sequence (P35354 18-604): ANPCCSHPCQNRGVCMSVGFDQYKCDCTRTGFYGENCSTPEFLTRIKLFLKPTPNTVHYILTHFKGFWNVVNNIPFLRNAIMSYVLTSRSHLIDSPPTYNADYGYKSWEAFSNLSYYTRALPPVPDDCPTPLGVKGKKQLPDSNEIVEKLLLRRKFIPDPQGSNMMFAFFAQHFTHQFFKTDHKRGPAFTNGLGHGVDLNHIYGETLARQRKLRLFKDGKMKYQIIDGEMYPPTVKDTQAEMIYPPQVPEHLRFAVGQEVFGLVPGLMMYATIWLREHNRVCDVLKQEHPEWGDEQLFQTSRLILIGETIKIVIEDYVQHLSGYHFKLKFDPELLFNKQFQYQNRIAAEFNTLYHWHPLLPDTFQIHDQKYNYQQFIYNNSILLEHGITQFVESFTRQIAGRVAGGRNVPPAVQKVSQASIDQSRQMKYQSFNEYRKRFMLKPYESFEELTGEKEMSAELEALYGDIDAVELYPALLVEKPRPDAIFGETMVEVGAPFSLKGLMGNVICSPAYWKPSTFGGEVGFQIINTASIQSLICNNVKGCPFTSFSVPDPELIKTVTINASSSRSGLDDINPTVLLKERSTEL
Nature of the data set: Human COX-2 enzyme activity in human whole blood (LPS-induced, thromboxane B2 EIA). Format: cell-based. The note with it: for inhibition at 1 µM: read-out: COX-2 Inhibition (% at 1 μM); for inhibition at 10 µM: read-out: COX-2 Inhibition (% at 10 μM). As for the experimental part: as §1

Setting [1] is: 100 μM, human whole blood, A23187 stimulation.
Setting [2] is: 1 μM, human whole blood, LPS induction.
Setting [3] is: 10 μM, human whole blood, LPS induction.

T1 sequence (P23219 24-599): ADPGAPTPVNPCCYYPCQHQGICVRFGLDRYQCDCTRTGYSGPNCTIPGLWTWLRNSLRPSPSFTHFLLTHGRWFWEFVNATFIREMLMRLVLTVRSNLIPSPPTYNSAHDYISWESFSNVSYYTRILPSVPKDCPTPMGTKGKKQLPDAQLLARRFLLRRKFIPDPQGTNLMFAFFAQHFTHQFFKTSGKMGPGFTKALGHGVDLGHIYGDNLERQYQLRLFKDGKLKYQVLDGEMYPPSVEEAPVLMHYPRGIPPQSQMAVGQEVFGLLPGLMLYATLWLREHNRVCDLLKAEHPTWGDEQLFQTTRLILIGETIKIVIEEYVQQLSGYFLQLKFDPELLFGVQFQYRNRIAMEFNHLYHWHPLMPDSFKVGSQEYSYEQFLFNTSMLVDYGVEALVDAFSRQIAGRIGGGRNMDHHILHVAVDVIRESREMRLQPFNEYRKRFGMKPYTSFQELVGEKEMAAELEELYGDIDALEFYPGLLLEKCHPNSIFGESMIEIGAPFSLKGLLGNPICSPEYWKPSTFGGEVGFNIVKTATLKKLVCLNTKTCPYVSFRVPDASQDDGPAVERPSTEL

In general, inhibition refers to the relative decrease from the control value, in per cent. What is called melting point is the temperature, or range, at which the solid turns liquid. `Cc1ccc(-n2nc(C(=O)CCCO[N+](=O)[O-])cc2-c2ccc(S(C)(=O)=O)cc2)cc1` [Example 12e, 1-(1-(4-Methylphenyl)-5-(4-(methylsulfonyl)phenyl)pyrazol-3-yl)-4-(nitrooxy)butan-1-one] showed a melting point of 107 to 109 °C. Further, on COX-1 (setting [1]), the inhibition at 100 µM turned out to be 55%. Further, at COX-2 (setting [2]), the inhibition at 1 µM is 70%. Also, the inhibition at 10 µM at COX-2 (setting [3]) turned out to be 95%.

Turning to `NS(=O)(=O)c1ccc(-c2c(-c3ccccc3)noc2COCC(F)(F)C(F)(F)CO[N+](=O)[O-])cc1` [Example 33b, 4-(3-Phenyl-5-((2,2,3,3-tetrafluoro-4-(nitrooxy)butoxy)methyl)isoxazol-4-yl)benzenesulfonamide], the melting point was 46 °C. Besides, the inhibition at 100 µM on COX-1 (setting [1]) came out at 85%. Moreover, at COX-2 (setting [2]), the inhibition at 1 µM was determined as 90%. The inhibition at 10 µM at COX-2 (setting [3]) came out at 100%.

Consider `CS(=O)(=O)c1ccc(-c2cc(C(=O)NCCO[N+](=O)[O-])nn2C2CCCCC2)cc1` [Example 45c, (1-Cyclohexyl-5-(4-(methylsulfonyl)phenyl)pyrazol-3-yl)-N-(2-(nitrooxy)ethyl)carboxamide], for which the melting point was 168 to 170 °C.

For `CS(=O)(=O)c1ccc(-c2cc(CCCO[N+](=O)[O-])nn2C2CCCCC2)cc1` [Example 31e, 4-(1-Cyclohexyl-3-(3-(nitrooxy)propyl)pyrazol-5-yl)-1-(methylsulfonyl)benzene], the melting point is 77 °C.

In turn, `CS(=O)(=O)c1ccc(-c2cc(C(=O)CCCO[N+](=O)[O-])nn2-c2ccc(Cl)cc2)cc1` [Example 44e, 1-(1-(4-Chlorophenyl)-5-(4-(methylsulfonyl)phenyl)pyrazol-3-yl)-4-(nitrooxy)butan-1-one] showed a melting point of 131 to 132 °C. The inhibition at 100 µM on COX-1 (setting [1]) is 60%. Also, at COX-2 (setting [2]), the inhibition at 1 µM came out at 30%. Further, the inhibition at 10 µM on COX-2 (setting [3]) was 100%.

`CS(=O)(=O)c1ccc(-c2cc(CCO[N+](=O)[O-])nn2C2CCCCC2)cc1` [Example 30d, 4-(1-Cyclohexyl-3-(2-(nitrooxy)ethyl)pyrazol-5-yl)-1-(methylsulfonyl)benzene] registered a melting point of 117 °C.

Take `CS(=O)(=O)c1ccc(-c2cc(COc3cccc(CO[N+](=O)[O-])c3)nn2C2CCCCC2)cc1` [Example 17d, 1-(1-Cyclohexyl-3-((3-((nitrooxy)methyl)phenoxy)methyl)pyrazol-5-yl)-4-(methylsulfonyl)benzene]: the inhibition at 100 µM on COX-1 (setting [1]) was 25%. Besides, the inhibition at 1 µM on COX-2 (setting [2]) was determined as 0%. At COX-2 (setting [3]), the inhibition at 10 µM was 25%.

`CS(=O)(=O)c1ccc(-c2cc(CCCC(=O)OCCCO[N+](=O)[O-])nn2-c2ccc(C(F)(F)F)cc2)cc1` [Example 47f, 3-(Nitrooxy)propyl 4-(5-(4-(methylsulfonyl)phenyl)-1-(4-(trifluoromethyl)-phenyl)pyrazol-3-yl)butanoate]: the inhibition at 100 µM on COX-1 (setting [1]) was determined as 85%. For the same molecule, the inhibition at 1 µM at COX-2 (setting [2]) was found to be 30%. In addition, the inhibition at 10 µM on COX-2 (setting [3]) was 65%.

As for `CS(=O)(=O)c1ccc(-c2cc(C(=O)CCCCCO)nn2C2CCCCC2)cc1` [Example 22c, 1-(1-Cyclohexyl-5-(4-(methylsulfonyl)phenyl)-pyrazol-3-yl)-6-hydroxyhexan-1-one], the inhibition at 100 µM at COX-1 (setting [1]) worked out at 40%. Besides, the inhibition at 1 µM on COX-2 (setting [2]) is 25%. The inhibition at 10 µM on COX-2 (setting [3]) amounted to 80%.

In the case of `Cc1ccc(-n2nc(COCCCO[N+](=O)[O-])cc2-c2ccc(S(C)(=O)=O)cc2)cc1` [Example 8e, 1-(1-(4-methylphenyl)-3-((3-(nitrooxy)propoxy)methyl)pyrazol-5-yl)-4-(methylsulfonyl)benzene], on COX-1 (setting [1]), the inhibition at 100 µM is 90%. In addition, the inhibition at 1 µM on COX-2 (setting [2]) amounted to 50%. The inhibition at 10 µM at COX-2 (setting [3]) came to 95%.

As to `CS(=O)(=O)c1ccc(-c2cc(/C=C\CCO)nn2-c2ccccc2)cc1` [Example 11d], at COX-1 (setting [1]), the “COX-1 Inhibition (% at 100 μM)” value amounted to 25%. Further, the “COX-2 Inhibition (% at 1 μM)” value at COX-2 (setting [2]) amounted to 0%. Besides, on COX-2 (setting [3]), the “COX-2 Inhibition (% at 10 μM)” value stood at 30%.

Turning to `CS(=O)(=O)c1ccc(-c2cc(COCCCO)nn2-c2ccc(F)cc2)cc1` [Example 18d, 1-(1-(4-Fluorophenyl)-3-((3-hydroxypropoxy)methyl)pyrazol-5-yl)-4-(methylsulfonyl)benzene], on COX-1 (setting [1]), the inhibition at 100 µM is 40%. The inhibition at 1 µM on COX-2 (setting [2]) is 45%. Moreover, the inhibition at 10 µM at COX-2 (setting [3]) amounted to 90%.

With `NS(=O)(=O)c1ccc(-c2c(-c3ccccc3)noc2COCC(F)(F)CO[N+](=O)[O-])cc1` [Example 32d, 4-(5-((2,2-Difuoro-3-(nitrooxy)propoxy)methyl)-3-phenylisoxazol-4-yl)benzenesulfoamide], the “COX-1 Inhibition (% at 100 μM)” value at COX-1 (setting [1]) is on record as 0%. In addition, the “COX-2 Inhibition (% at 1 μM)” value at COX-2 (setting [2]) is 20%. Besides, the “COX-2 Inhibition (% at 10 μM)” value on COX-2 (setting [3]) worked out at 85%.

Take `NS(=O)(=O)c1ccc(-c2c(-c3ccccc3)noc2COCC(F)(F)C(F)(F)C(F)(F)CO)cc1` [Example 34a, 4-(5-((2,2,3,3,4,4-Hexafluoro-5-hydroxypentyloxy)methyl)-3-phenylisoxazol-4-yl)benzenesulfonamide]: the inhibition at 100 µM on COX-1 was 95%. Moreover, on COX-2, the inhibition at 1 µM came to 90% and the inhibition at 10 µM stood at 100%.

Take `CS(=O)(=O)c1ccc(-c2cc(COCCO)nn2C2CCCCC2)cc1` [Example 15d, 1-(1-Cyclohexyl-3-((2-hydroxyethoxy)methyl)pyrazol-5-yl)-4-(methylsulfonyl)benzene]: the inhibition at 100 µM on COX-1 (setting [1]) worked out at 10%. For the same molecule, the inhibition at 1 µM at COX-2 (setting [2]) amounted to 0%. Further, the inhibition at 10 µM on COX-2 (setting [3]) turned out to be 40%.

In the case of `COc1ccc(-n2nc(COCCCO)cc2-c2ccc(S(C)(=O)=O)cc2)cc1` [Example 10d, 1-(3-((3-Hydroxypropoxy)methyl)-1-(4-methoxyphenyl)pyrazol-5-yl)-4-(methylsulfonyl)benzene], the inhibition at 100 µM on COX-1 (setting [1]) worked out at 100%. At COX-2 (setting [2]), the inhibition at 1 µM turned out to be 25%. Besides, the inhibition at 10 µM on COX-2 (setting [3]) was found to be 100%.

With `Cc1ccc(-c2[nH]nc(COCCCO[N+](=O)[O-])c2-c2ccc(S(N)(=O)=O)cc2)cc1` [Example 20g, 4-(5-(4-Methylphenyl)-3-((3-(nitrooxy)propoxy)methyl)pyrazolyl)benzenesulfonamide], the melting point came to 62 °C.

As for `CS(=O)(=O)c1ccc(-c2cc(C(=O)CCCCCO[N+](=O)[O-])nn2C2CCCCC2)cc1` [Example 22d], the “COX-1 Inhibition (% at 100 μM)” value on COX-1 (setting [1]) was 75%. The “COX-2 Inhibition (% at 1 μM)” value at COX-2 (setting [2]) came to 30%. Also, on COX-2 (setting [3]), the “COX-2 Inhibition (% at 10 μM)” value is on record as 30%.

Consider `CS(=O)(=O)c1ccc(-n2nc(/C=C\CCO)cc2-c2cccnc2)cc1` [Example 25e, 1-(3-((1Z)-4-Hydroxybut-1-enyl)-5-(3-pyridnyl)pyrazolyl)-4-(methylsulfonyl)benzene], for which the “COX-1 Inhibition (% at 100 μM)” value at COX-1 (setting [1]) is on record as 10%. Besides, at COX-2 (setting [2]), the “COX-2 Inhibition (% at 1 μM)” value is on record as 15%. Besides, the “COX-2 Inhibition (% at 10 μM)” value at COX-2 (setting [3]) stood at 0%.

Regarding `CS(=O)(=O)c1ccc(-c2cc(COCCCO[N+](=O)[O-])nn2-c2ccc(F)cc2)cc1` [Example 18e, 1-(1-(4-Fluorophenyl)-3-((3-(nitrooxy)propoxy)methyl)pyrazol-5-yl)-4-(methylsulfonyl)benzene], the inhibition at 100 µM at COX-1 (setting [1]) came out at 80%. For the same molecule, on COX-2 (setting [2]), the inhibition at 1 µM turned out to be 55%. The inhibition at 10 µM on COX-2 (setting [3]) was 95%.

Regarding `CS(=O)(=O)c1ccc(-c2cc(C(F)(F)OCCCO)nn2-c2ccccc2)cc1` [Example 6e, 1-(3-(Difluoro(3-hydroxypropoxy)methyl)-1-phenylpyrazol-5-yl)-4-(methylsulfonyl)benzene], the inhibition at 100 µM on COX-1 (setting [1]) is 40%. Moreover, the inhibition at 1 µM at COX-2 (setting [2]) stood at 50%. The inhibition at 10 µM at COX-2 (setting [3]) amounted to 85%.
